Consider seven molecules from ChEMBL document CHEMBL1136763, “Antiestrogenically active 1,1,2-tris(4-hydroxyphenyl)alkenes without basic side chain: synthesis and biological activity” (J Med Chem, 2003).

One experiment has as its system MCF7. As to the kind of experiment: Inhibition of MCF-7 cell proliferation at 5 uM. The experiment is classed as functional, Homo sapiens.
The next experiment has as its target Estrogen receptor (Homo sapiens, UniProt Q92731+P03372). Briefly: Inhibition of estradiol induced estrogen receptor transcriptional activation in MCF-7-2a cells. The experiment is classed as functional, cell-based.

Consider `CC/C(=C(\c1ccc(O)cc1)c1ccc(OCCN(C)C)cc1)c1ccccc1`, for which, in the experiment with MCF7, the T/C corr is on record as 25%.
By IC50 is commonly meant the concentration at which inhibition is half-maximal. The low end stands for greater potency in that assay, the high end for weaker potency in that assay. `Oc1ccc(C=C(c2ccc(O)cc2)c2ccc(O)cc2)cc1` had an IC50 against Estrogen receptor of 200 nM. Further, the T/C corr in the experiment on MCF7 is reported as 70%.
The like results for `CCC(=C(c1ccc(O)cc1)c1ccc(O)cc1)c1ccc(O)cc1` were, in that order, 10 nM and 97%.
For the molecule `CC(=C(c1ccc(O)cc1)c1ccc(O)cc1)c1ccc(O)cc1`, on Estrogen receptor, the half-maximal inhibitory concentration (IC50) was 15 nM. Also, in the experiment with MCF7, the T/C corr worked out at 88%.
Molecule `CCCCC(=C(c1ccc(O)cc1)c1ccc(O)cc1)c1ccc(O)cc1` had a half-maximal inhibitory concentration (IC50) at Estrogen receptor of 240 nM. The T/C corr with MCF7 was 114%.
As for `CCCC(=C(c1ccc(O)cc1)c1ccc(O)cc1)c1ccc(O)cc1`, on Estrogen receptor, the concentration for half-maximal inhibition (IC50) was 70 nM. This molecule registered a T/C corr with MCF7 of 102%.
In the experiment with MCF7, `CC/C(=C(\c1ccccc1)c1ccc(OCCN(C)C)cc1)c1ccccc1` [TAMOXIFEN] came in with a T/C corr of 15%.
